Experimental data taken from US5043332A, “Novel 11β-substituted -19-nor-steriods” (priority 1981, dated 1991).

Assays:
[1] = biological target: T1, Progestogen receptor of the uterus of rabbits (Oryctolagus cuniculus, UniProt P06186); experiment: Progestogen receptor binding (displacement of tritiated product R); design: species or system rabbit; settings: conclusion
T1 construct: The uterus was removed, weighed and homogenized at 0° C; from tissue; host or cells: rabbit uterus, 105,000 g supernatant (estradiol-primed immature rabbits)
T1 sequence (P06186 1-930): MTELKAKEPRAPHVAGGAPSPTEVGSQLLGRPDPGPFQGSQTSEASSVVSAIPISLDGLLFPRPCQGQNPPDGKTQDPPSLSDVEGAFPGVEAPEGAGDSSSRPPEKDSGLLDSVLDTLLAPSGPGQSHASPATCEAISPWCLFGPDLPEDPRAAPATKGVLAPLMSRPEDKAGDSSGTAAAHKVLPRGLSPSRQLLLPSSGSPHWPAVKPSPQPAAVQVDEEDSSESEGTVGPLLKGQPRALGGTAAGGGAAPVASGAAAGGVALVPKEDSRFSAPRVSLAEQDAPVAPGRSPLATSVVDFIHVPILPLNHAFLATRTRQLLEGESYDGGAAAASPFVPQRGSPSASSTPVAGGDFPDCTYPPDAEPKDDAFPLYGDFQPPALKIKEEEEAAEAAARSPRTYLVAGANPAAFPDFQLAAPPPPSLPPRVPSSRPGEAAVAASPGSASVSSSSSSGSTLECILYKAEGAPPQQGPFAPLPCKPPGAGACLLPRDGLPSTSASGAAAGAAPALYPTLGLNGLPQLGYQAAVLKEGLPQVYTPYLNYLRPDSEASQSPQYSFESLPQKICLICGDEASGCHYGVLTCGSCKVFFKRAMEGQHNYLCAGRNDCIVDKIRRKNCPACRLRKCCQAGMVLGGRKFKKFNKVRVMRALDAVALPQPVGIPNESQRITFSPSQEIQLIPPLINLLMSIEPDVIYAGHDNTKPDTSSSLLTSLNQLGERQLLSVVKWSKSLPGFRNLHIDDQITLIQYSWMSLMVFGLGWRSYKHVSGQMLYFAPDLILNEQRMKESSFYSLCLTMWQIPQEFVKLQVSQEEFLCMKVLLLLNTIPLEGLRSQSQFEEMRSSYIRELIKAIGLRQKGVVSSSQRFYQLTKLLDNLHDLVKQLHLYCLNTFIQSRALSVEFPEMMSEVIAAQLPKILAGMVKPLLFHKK
Protocol: C. Progestogen receptor of the uterus of rabbits
Immature rabbits weighing about 1 kg received a cutaneous application of 25 μg of estradiol and the animals were killed 5 days later. The uterus was removed, weighed and homogenized at 0° C. with a polytetrafluoroethylene-glass Potter, in a buffered TS solution [Tris 10. mM, 0.25M of saccharose, HCl-pH of 7.4] with 1 g of tissue per 50 ml of TS. […] The concentration of tied tritiated R (B) was then measured for each incubate by the technique of adsoprtion on carbon-dextran.
The calculation of the relative affinity of […] (ARL) was identical for all of the above receptor tests. One traced the following two curves: the percentage of tied tritiated hormone B/T as a function of the logarithm of the cold hormone concentration and B/T as a function of the logarithm of the concentration of the cold test product. One determined the line of the equation. [formula]
The intersection of the I50 line and the curves permits one to determine the concentrations of the cold hormone of the reference (CH) and the cold test compound (CX) which inhibit by 50% the tieing of tritiated hormone with the receptor. The relative affinity of tieing (ARL) of the test product was determined by the equation: [formula]

granuloma = experiment: Anti-inflammatory activity, classical granuloma test (cotton pellets); assay type: in vivo, Wistar rats; settings: subcutaneous dose of 50 mg/kg
Protocol: II. Anti-inflammatory Activity
(§1) The anti-inflammatory activity of the compound of Example 4 was determined by the classical granuloma test by a modification of the Meier et al test [Experientia, Vol. 6 (1950), p. 469] in which normal female Wistar rats weighing 100 to 110 g received an implantation of 2 pellets of cotton weighing 10 mg each under the thorax skin. The subcutaneous treatment which began immediately after the implantation for 2 days was 2 injections per day. 16 hours after the last injection, the animals were killed and the pellets together with the granuloma tissue formed were weighed in the fresh state and after 16 hours at 60° C. The weight of the granuloma was obtained by subtracting the initial weight of the cotton. The thymus was also removed and weighed to determine the thymolytic activity of the test product.

thymus = experiment: Thymolytic activity in the granuloma test; assay type: in vivo, Wistar rats; settings: subcutaneous dose of 50 mg/kg
Protocol: as §1

uterine endometrium [2] = experiment: Progestomimetic activity, oral, change in uterine endometrium (McPhail); assay type: in vivo, immature female rabbits
Protocol: (§2) IV. Progestomimetic and Anti-progestomimetic Activity
(§3) a) Groups of immature female rabbits weighing about 1 kg had administered to them subcutaneously from day 1 to day 5, 5 μg of estradiol. The product tested was afterward administered orally from day 8 to day 11 in a volume of 0.5 cm^3 of water containing 0.5% of carboxymethyl cellulose and 0.2% of Tween. On day 12, the rabbits were sacrificed, their uteruses were retained and fixed in Bouin's solution and histologically studied.
(§4) The changes in the uterine endometrium were noted according to the method of McPhail.

uterine endometrium [3] = experiment: Anti-progestomimetic activity versus progesterone, oral, change in uterine endometrium (McPhail); assay type: in vivo, immature female rabbits
Protocol: as §2, §3, §4

uterine endometrium [4] = experiment: Progestomimetic activity, intrauterine, change in uterine endometrium (McPhail); assay type: in vivo, immature female rabbits; settings: method of McPhail
Protocol: Groups of three immature female rabbits weighing about 1 kg were topically treated on the dorsal skin with 25 μg of estradiol in 10 μl of ethanol on day 1. On day 4 the product to be tested dissolved in 0.1 ml, of sesame oil containing 5% benzyl alcohol was introduced into a part of the uterus isolated between two ligatures. On the sixth day the animals were sacrificed, their uteruses retained and fixed in Bouin's solution for histological examination. Changes in the uterine endometrium were noted after the method of McPhail.

female rats = experiment: Anti-implantation and abortive activities in female rats; assay type: in vivo, rat; settings: by mouth
Protocol: V. ANTI-IMPLANTATION AND ABORTIVE ACTIVITIES IN FEMALE RATS
The first day of gestation is determined by the presence of sperm in the vagina.
The animals were sacrificed between the 5th and 8th day after the last treatment and the uterus was examined.

With `CC#C[C@]1(O)CC[C@H]2[C@@H]3CCC4=CC(=O)CCC4=C3[C@@H](c3ccc(N(C)C)cc3)C[C@@]21C` [Example 19, 11β-[4-(N,N-dimethylamino)-phenyl]-17α-(prop-1-ynyl)-Δ^4,9-estradiene-17β-ol-3-one] as the molecule, how does the “affinity for progestogen receptors (in words)” value [1] read?
The value was “very remarkable affinity”.

And the glucocorticoidal anti-inflammatory activity (granuloma)?
Its glucocorticoidal anti-inflammatory activity is “did not show any glucocorticoidal anti-inflammatory activity”.

And the thymolytic activity (thymus)?
Its thymolytic activity is “did not show any glucocorticoidal anti-inflammatory activity or thymolytic activity”.

What about the “CHANGE IN THE ENDOMETRIUM” value (uterine endometrium [2]; 0.3 mg/kg by mouth) of the same molecule?
Its value is 0 McPHAIL UNTS.

And the “CHANGE IN THE ENDOMETRIUM” value (uterine endometrium [2]; 1.0 mg/kg by mouth)?
The value was 0 McPHAIL UNTS.

And the “CHANGE IN THE ENDOMETRIUM” value (uterine endometrium [2]; 3.0 mg/kg by mouth)?
The value was 0 McPHAIL UNTS.

What about the “CHANGE IN THE ENDOMETRIUM” value (uterine endometrium [2]; 10.0 mg/kg by mouth) of the same molecule?
Its value is 0 McPHAIL UNTS.

What about the “CHANGE IN THE ENDOMETRIUM” value (uterine endometrium [2]; 50 mg/kg by mouth) of the same molecule?
The value was 0 McPHAIL UNTS.

And the “CHANGE IN THE ENDOMETRIUM” value (uterine endometrium [3]; progesterone 0.2 mg subcutaneously + 0.3 mg/kg by mouth)?
The value was 2.8 McPHAIL UNTS.

What about the “CHANGE IN THE ENDOMETRIUM” value (uterine endometrium [3]; progesterone 0.2 mg subcutaneously + 1 mg/kg by mouth) of the same molecule?
The value was 2.1 McPHAIL UNTS.

What about the “CHANGE IN THE ENDOMETRIUM” value (uterine endometrium [3]; progesterone 0.2 mg subcutaneously + 3 mg/kg by mouth) of the same molecule?
Its value is 1.4 McPHAIL UNTS.

What about the “CHANGE IN THE ENDOMETRIUM” value (uterine endometrium [3]; progesterone 0.2 mg subcutaneously + 10 mg/kg by mouth) of the same molecule?
The value was 0.6 McPHAIL UNTS.

And the “CHANGE IN THE ENDOMETRIUM” value (uterine endometrium [3]; progesterone 0.2 mg subcutaneously + 20 mg/kg by mouth)?
Its value is 0 McPHAIL UNTS.

What about the “CHANGE IN THE ENDOMETRIUM” value (uterine endometrium [4]; 30 μg/rabbit) of the same molecule?
The value was 0.

What about the “CHANGE IN THE ENDOMETRIUM” value (uterine endometrium [4]; 500 μg/rabbit) of the same molecule?
The value was 0.

What about the “RESULTS (anti-implantation / abortion)” value (female rats; days 1, 2, 3, 2 mg/kg/day) of the same molecule?
The value was “No action”.

What about the “RESULTS (anti-implantation / abortion)” value (female rats; days 1, 2, 3, 10 mg/kg/day) of the same molecule?
Its value is “Non-implantation”.

What about the “RESULTS (anti-implantation / abortion)” value (female rats; days 4, 5, 6, 2 mg/kg/day) of the same molecule?
Its value is “Non-implantation”.

And the “RESULTS (anti-implantation / abortion)” value (female rats; days 4, 5, 6, 10 mg/kg/day)?
Its value is “Non-implantation”.

What about the “RESULTS (anti-implantation / abortion)” value (female rats; days 7, 8, 9, 2 mg/kg/day) of the same molecule?
Its value is “Abortion”.

And the “RESULTS (anti-implantation / abortion)” value (female rats; days 7, 8, 9, 10 mg/kg/day)?
The value was “Abortion”.

And the “RESULTS (anti-implantation / abortion)” value (female rats; days 10, 11, 12, 2 mg/kg/day)?
Its value is “Abortion”.

What about the “RESULTS (anti-implantation / abortion)” value (female rats; days 10, 11, 12, 10 mg/kg/day) of the same molecule?
The value was “Abortion”.

And the “Abortion, % of the animals” value (female rats; days 13, 14, 15, 2 mg/kg/day)?
Its value is 50%.

And the “RESULTS (anti-implantation / abortion)” value (female rats; days 13, 14, 15, 10 mg/kg/day)?
Its value is “Abortion”.
